Assay results: ChEMBL document CHEMBL6078713, “Synthesis and mechanistic studies of 4-aminoquinoline-Isatin molecular hybrids and Schiff's bases as promising antimicrobial agents” (Eur J Med Chem, 2025)
Values after ≈ are worked out from the molar mass of the structure shown. Active and inactive are the calls of the source. The calls are words filed in the database; no cut-off is given here.

How the values were obtained:
Staphylococcus aureus [1] = assay: Antibacterial activity against Staphylococcus aureus MTCC 902 assessed as diameter of zone of inhibition at 500 ug/ml by agar disk diffusion method; assay type: functional; settings: read-out: DIZ
Escherichia coli [2] = assay: Antibacterial activity against Escherichia coli MTCC 443 assessed as diameter of zone of inhibition at 2 times MIC incubated overnight by disk diffusion method; assay type: functional
Pseudomonas aeruginosa [3] = assay: Ratio of MBC for antibacterial activity against Pseudomonas aeruginosa MTCC 2453 to MIC for bactericidal activity against Pseudomonas aeruginosa MTCC 2453; assay type: functional
Salmonella typhi [4] = assay: Antibacterial activity against Salmonella typhi assessed as diameter of zone of inhibition at 2 times MIC incubated overnight by disk diffusion method; assay type: functional, Salmonella enterica subsp. enterica serovar Typhi
Enterococcus faecalis [5] = assay: Synergistic antibacterial activity against Enterococcus faecalis MTCC 439 assessed as inhibition of bacterial growth incubated overnight in presence of ciprofloxacin by serial dilution based spectrophotometer; assay type: functional
Staphylococcus aureus [6] = assay: Antibacterial activity against Staphylococcus aureus MTCC 902 assessed as diameter of zone of inhibition at 2 times MIC incubated overnight by disk diffusion method; assay type: functional
Salmonella typhi [7] = assay: Antibacterial activity against Salmonella typhi assessed as diameter of zone of inhibition at 0.5 times MIC incubated overnight by disk diffusion method; assay type: functional, Salmonella enterica subsp. enterica serovar Typhi
Enterococcus faecalis [8] = assay: Antibacterial activity against Enterococcus faecalis MTCC 439 assessed as diameter of zone of inhibition at 500 ug/ml by agar disk diffusion method; assay type: functional; settings: read-out: DIZ
Pseudomonas aeruginosa [9] = assay: Synergistic antibacterial activity against Pseudomonas aeruginosa MTCC 2453 assessed as fractional inhibitory concentration index incubated overnight in presence of ciprofloxacin by microdilution checkerboard assay; assay type: functional
Staphylococcus aureus [10] = assay: Bactericidal activity against Staphylococcus aureus MTCC 902 assessed as inhibition of bacterial growth incubated overnight; assay type: functional
Bacillus subtilis [11] = assay: Antibacterial activity against Bacillus subtilis MTCC 736 assessed as diameter of zone of inhibition at 2 times MIC incubated overnight by disk diffusion method; assay type: functional
Enterococcus faecalis [12] = assay: Antibacterial activity against Enterococcus faecalis MTCC 439 assessed as inhibition of bacterial growth incubated overnight by serial dilution based spectrophotometer; assay type: functional
Staphylococcus aureus [13] = assay: Ratio of MBC for antibacterial activity against Staphylococcus aureus MTCC 902 to MIC for bactericidal activity against Staphylococcus aureus MTCC 902; assay type: functional
Pseudomonas aeruginosa [14] = assay: Antibacterial activity against Pseudomonas aeruginosa MTCC 2453 assessed as diameter of zone of inhibition at 500 ug/ml by agar disk diffusion method; assay type: functional; settings: read-out: DIZ
Pseudomonas aeruginosa [15] = assay: Antibacterial activity against Pseudomonas aeruginosa MTCC 2453 assessed as inhibition of bacterial growth incubated overnight by serial dilution based spectrophotometer; assay type: functional
Escherichia coli [16] = assay: Antibacterial activity against Escherichia coli MTCC 443 assessed as diameter of zone of inhibition at MIC incubated overnight by disk diffusion method; assay type: functional
Bacillus subtilis [17] = assay: Antibacterial activity against Bacillus subtilis MTCC 736 assessed as inhibition of bacterial growth incubated overnight by serial dilution based spectrophotometer; assay type: functional
Enterococcus faecalis [18] = assay: Synergistic antibacterial activity against Enterococcus faecalis MTCC 439 assessed as fractional inhibitory concentration index incubated overnight in presence of ciprofloxacin by microdilution checkerboard assay; assay type: functional
Escherichia coli [19] = assay: Bacteriostatic activity against Escherichia coli MTCC 443 assessed as reduction in bacterial growth at 2 times MIC measured upto 24 hrs by absorbance based assay; assay type: functional, organism-based
Salmonella typhi [20] = assay: Antibacterial activity against Salmonella typhi assessed as diameter of zone of inhibition at MIC incubated overnight by disk diffusion method; assay type: functional, Salmonella enterica subsp. enterica serovar Typhi
Enterococcus faecalis [21] = assay: Bactericidal activity against Enterococcus faecalis MTCC 439 assessed as inhibition of bacterial growth incubated overnight; assay type: functional
Bacillus subtilis [22] = assay: Antibacterial activity against Bacillus subtilis MTCC 736 assessed as diameter of zone of inhibition at MIC incubated overnight by disk diffusion method; assay type: functional
Escherichia coli [23] = assay: Ratio of MBC for antibacterial activity against Escherichia coli MTCC 443 to MIC for bactericidal activity against Escherichia coli MTCC 443; assay type: functional
Pseudomonas aeruginosa [24] = assay: Synergistic antibacterial activity against Pseudomonas aeruginosa MTCC 2453 assessed as inhibition of bacterial growth incubated overnight in presence of ciprofloxacin by serial dilution based spectrophotometer; assay type: functional
Enterococcus faecalis [25] = assay: Antibacterial activity against Enterococcus faecalis MTCC 439 assessed as diameter of zone of inhibition at MIC incubated overnight by disk diffusion method; assay type: functional
Bacillus subtilis [26] = assay: Synergistic antibacterial activity against Bacillus subtilis MTCC 736 assessed as fractional inhibitory concentration index incubated overnight in presence of ciprofloxacin by microdilution checkerboard assay; assay type: functional
Staphylococcus aureus [27] = assay: Bacteriostatic activity against Staphylococcus aureus MTCC 902 assessed as reduction in bacterial growth at 2 times MIC measured upto 24 hrs by absorbance based assay; assay type: functional, organism-based
Salmonella typhi [28] = assay: Antibacterial activity against Salmonella typhi assessed as inhibition of bacterial growth incubated overnight by serial dilution based spectrophotometer; assay type: functional, Salmonella enterica subsp. enterica serovar Typhi; settings: Salmonella enterica
Escherichia coli [29] = assay: Antibacterial activity against Escherichia coli MTCC 443 assessed as inhibition of bacterial growth incubated overnight by serial dilution based spectrophotometer; assay type: functional
Enterococcus faecalis [30] = assay: Antibacterial activity against Enterococcus faecalis MTCC 439 assessed as diameter of zone of inhibition at 2 times MIC incubated overnight by disk diffusion method; assay type: functional
Staphylococcus aureus [31] = assay: Synergistic antibacterial activity against Staphylococcus aureus MTCC 902 assessed as fractional inhibitory concentration index incubated overnight in presence of ciprofloxacin by microdilution checkerboard assay; assay type: functional
Staphylococcus aureus [32] = assay: Antibacterial activity against Staphylococcus aureus MTCC 902 assessed as inhibition of bacterial growth incubated overnight by serial dilution based spectrophotometer; assay type: functional
Bacillus subtilis [33] = assay: Ratio of MBC for antibacterial activity against Bacillus subtilis MTCC 736 to MIC for bactericidal activity against Bacillus subtilis MTCC 736; assay type: functional
Salmonella typhi [34] = assay: Synergistic antibacterial activity against Salmonella typhi assessed as inhibition of bacterial growth incubated overnight in presence of ciprofloxacin by serial dilution based spectrophotometer; assay type: functional, Salmonella enterica subsp. enterica serovar Typhi; settings: Salmonella enterica
Salmonella typhi [35] = assay: Ratio of MBC for antibacterial activity against Salmonella typhi to MIC for bactericidal activity against Salmonella typhi; assay type: functional, Salmonella enterica subsp. enterica serovar Typhi
Staphylococcus aureus [36] = assay: Synergistic antibacterial activity against Staphylococcus aureus MTCC 902 assessed as inhibition of bacterial growth incubated overnight in presence of ciprofloxacin by serial dilution based spectrophotometer; assay type: functional
Bacillus subtilis [37] = assay: Antibacterial activity against Bacillus subtilis MTCC 736 assessed as diameter of zone of inhibition at 500 ug/ml by agar disk diffusion method; assay type: functional; settings: read-out: DIZ
Enterococcus faecalis [38] = assay: Ratio of MBC for antibacterial activity against Enterococcus faecalis MTCC 439 to MIC for bactericidal activity against Enterococcus faecalis MTCC 439; assay type: functional
Escherichia coli [39] = assay: Synergistic antibacterial activity against Escherichia coli MTCC 443 assessed as fractional inhibitory concentration index incubated overnight in presence of ciprofloxacin by microdilution checkerboard assay; assay type: functional
Enterococcus faecalis [40] = assay: Antibacterial activity against Enterococcus faecalis MTCC 439 assessed as diameter of zone of inhibition at 0.5 times MIC incubated overnight by disk diffusion method; assay type: functional
Escherichia coli [41] = assay: Bactericidal activity against Escherichia coli MTCC 443 assessed as inhibition of bacterial growth incubated overnight; assay type: functional
Salmonella typhi [42] = assay: Bactericidal activity against Salmonella typhi assessed as inhibition of bacterial growth incubated overnight; assay type: functional, Salmonella enterica subsp. enterica serovar Typhi; settings: Salmonella enterica
Escherichia coli [43] = assay: Antibacterial activity against Escherichia coli MTCC 443 assessed as diameter of zone of inhibition at 0.5 times MIC incubated overnight by disk diffusion method; assay type: functional

Compound: O=[N+]([O-])c1ccccc1/C=N/CCNc1ccnc2cc(Cl)ccc12
- zone of inhibition at 500 µg/mL (Staphylococcus aureus [1]): 10 mm
- diameter of the inhibition zone (DIZ) (Escherichia coli [2]): 9 mm
- Ratio (Pseudomonas aeruginosa [3]): 1
- diameter of the inhibition zone (DIZ) (Salmonella typhi [4]): 8 mm
- MIC (Enterococcus faecalis [5]): 2 µg/mL
- diameter of the inhibition zone (DIZ) (Staphylococcus aureus [6]): 9 mm
- diameter of the inhibition zone (DIZ) (Salmonella typhi [7]): 6 mm
- zone of inhibition at 500 µg/mL (Enterococcus faecalis [8]): 13 mm
- fractional inhibitory concentration index (FICI) (Pseudomonas aeruginosa [9]): 1.5
- MBC (Staphylococcus aureus [10]): 256 µg/mL (≈ 722 µM)
- diameter of the inhibition zone (DIZ) (Bacillus subtilis [11]): 11 mm
- MIC (Enterococcus faecalis [12]): 128 µg/mL (≈ 361 µM)
- Ratio (Staphylococcus aureus [13]): 1
- zone of inhibition at 500 µg/mL (Pseudomonas aeruginosa [14]): 11 mm
- MIC (Pseudomonas aeruginosa [15]): 128 µg/mL (≈ 361 µM)
- diameter of the inhibition zone (DIZ) (Escherichia coli [16]): 7 mm
- MIC (Bacillus subtilis [17]): 128 µg/mL (≈ 361 µM)
- fractional inhibitory concentration index (FICI) (Enterococcus faecalis [18]): 0.265
- Activity (Escherichia coli [19]): Active
- diameter of the inhibition zone (DIZ) (Salmonella typhi [20]): 11 mm
- MBC (Enterococcus faecalis [21]): 256 µg/mL (≈ 722 µM)
- diameter of the inhibition zone (DIZ) (Bacillus subtilis [22]): 9 mm
- Ratio (Escherichia coli [23]): 1
- MIC (Pseudomonas aeruginosa [24]): 64 µg/mL
- diameter of the inhibition zone (DIZ) (Enterococcus faecalis [25]): 10 mm
- fractional inhibitory concentration index (FICI) (Bacillus subtilis [26]): 0.5
- Activity (Staphylococcus aureus [27]): Active
- MIC (Salmonella typhi [28]): 64 µg/mL (≈ 180 µM)
- MIC (Escherichia coli [29]): 128 µg/mL (≈ 361 µM)
- diameter of the inhibition zone (DIZ) (Enterococcus faecalis [30]): 12 mm
- fractional inhibitory concentration index (FICI) (Staphylococcus aureus [31]): 1.25
- MIC (Staphylococcus aureus [32]): 256 µg/mL (≈ 722 µM)
- Ratio (Bacillus subtilis [33]): 1
- MIC (Salmonella typhi [34]): 1 µg/mL
- Ratio (Salmonella typhi [35]): 1
- MIC (Staphylococcus aureus [36]): 64 µg/mL
- zone of inhibition at 500 µg/mL (Bacillus subtilis [37]): 12 mm
- Ratio (Enterococcus faecalis [38]): 2
- fractional inhibitory concentration index (FICI) (Escherichia coli [39]): 0.124
- diameter of the inhibition zone (DIZ) (Enterococcus faecalis [40]): 9 mm
- MBC (Escherichia coli [41]): 128 µg/mL (≈ 361 µM)
- MBC (Salmonella typhi [42]): 64 µg/mL (≈ 180 µM)
- diameter of the inhibition zone (DIZ) (Escherichia coli [43]): 6 mm

Compound: Clc1ccc2c(NCC/N=C/c3ccc4ccccc4n3)ccnc2c1
- zone of inhibition at 500 µg/mL (Staphylococcus aureus [1]): 8 mm
- diameter of the inhibition zone (DIZ) (Escherichia coli [2]): 12 mm
- Ratio (Pseudomonas aeruginosa [3]): 2
- diameter of the inhibition zone (DIZ) (Salmonella typhi [4]): 12 mm
- MIC (Enterococcus faecalis [5]): 16 µg/mL
- diameter of the inhibition zone (DIZ) (Staphylococcus aureus [6]): 10 mm
- diameter of the inhibition zone (DIZ) (Salmonella typhi [7]): 9 mm
- zone of inhibition at 500 µg/mL (Enterococcus faecalis [8]): 10 mm
- fractional inhibitory concentration index (FICI) (Pseudomonas aeruginosa [9]): 1.25
- MBC (Staphylococcus aureus [10]): 512 µg/mL (≈ 1420 µM)
- diameter of the inhibition zone (DIZ) (Bacillus subtilis [11]): 10 mm
- MIC (Enterococcus faecalis [12]): 256 µg/mL (≈ 709 µM)
- Ratio (Staphylococcus aureus [13]): 1
- zone of inhibition at 500 µg/mL (Pseudomonas aeruginosa [14]): 10 mm
- MIC (Pseudomonas aeruginosa [15]): 256 µg/mL (≈ 709 µM)
- diameter of the inhibition zone (DIZ) (Escherichia coli [16]): 11 mm
- MIC (Bacillus subtilis [17]): 128 µg/mL (≈ 355 µM)
- fractional inhibitory concentration index (FICI) (Enterococcus faecalis [18]): 0.312
- Activity (Escherichia coli [19]): Active
- diameter of the inhibition zone (DIZ) (Salmonella typhi [20]): 10 mm
- MBC (Enterococcus faecalis [21]): 512 µg/mL (≈ 1420 µM)
- diameter of the inhibition zone (DIZ) (Bacillus subtilis [22]): 6 mm
- Ratio (Escherichia coli [23]): 1
- MIC (Pseudomonas aeruginosa [24]): 64 µg/mL
- diameter of the inhibition zone (DIZ) (Enterococcus faecalis [25]): 7 mm
- fractional inhibitory concentration index (FICI) (Bacillus subtilis [26]): 1.25
- Activity (Staphylococcus aureus [27]): Active
- MIC (Salmonella typhi [28]): 128 µg/mL (≈ 355 µM)
- MIC (Escherichia coli [29]): 128 µg/mL (≈ 355 µM)
- diameter of the inhibition zone (DIZ) (Enterococcus faecalis [30]): 7 mm
- fractional inhibitory concentration index (FICI) (Staphylococcus aureus [31]): 1.5
- MIC (Staphylococcus aureus [32]): 512 µg/mL (≈ 1420 µM)
- Ratio (Bacillus subtilis [33]): 4
- MIC (Salmonella typhi [34]): 4 µg/mL
- Ratio (Salmonella typhi [35]): 1
- MIC (Staphylococcus aureus [36]): 256 µg/mL
- zone of inhibition at 500 µg/mL (Bacillus subtilis [37]): 10 mm
- Ratio (Enterococcus faecalis [38]): 2
- fractional inhibitory concentration index (FICI) (Escherichia coli [39]): 0.281
- diameter of the inhibition zone (DIZ) (Enterococcus faecalis [40]): 7 mm
- MBC (Escherichia coli [41]): 128 µg/mL (≈ 355 µM)
- MBC (Salmonella typhi [42]): 128 µg/mL (≈ 355 µM)
- diameter of the inhibition zone (DIZ) (Escherichia coli [43]): 11 mm
